Patent US4716153A, “Stable oral preparation of macrolide antibiotics and method for stabilizing the same” (priority 1982, dated 1987)
Like-named read-outs stand apart in the source and are kept apart here.

Tests used:
[1] = Elution rate in aqueous solutions of various pH and physiological saline solution; type: physicochemical; settings: for elution rate, pH 1.2, 2 and 3: initial pH 1.2, 2 and 3; for elution rate, pH 1.2, 2 and 3 / elution rate, pH 4 and 5 / elution rate, physiological saline solution: 37° C.; for elution rate, pH 4 and 5: initial pH 4 and 5
Experimental: After 40 ml of Japan Pharmacopoeia 1st solution (pH 1.2) was placed in a vessel whose temperature was kept constant in a thermostat at 37° C., 200 mg of TMS-19-Q was added and the mixture was stirred by a magnetic stirrer. […] Then, Japan Pharmacopoeia 2nd solution were mixed with the 1st solution, and by using aqueous solutions whose pH values were adjusted to be 2, 3, 4 and 5 and a physiological saline solution, respectively, elution rate of each thereof was measured.
To 40 ml of Japan Pharmacopoeia 1st solution (pH 1.2), 120 ml of water was added, and after the solution was kept in a constant temperature bath controlled at 37° C., 200 mg of midecamycin was added, and the mixture was stirred by a magnetic stirrer. Then, 5 ml aliquots of the solution were sampled in a lapse of time (at 5 minutes, 15 minutes and 30 minutes), and absorbances were measured (wavelength: 232 nm) and elution rate were calculated. Then, Japan Pharmacopoeia 1st solution and Japan Pharmacopoeia 2nd solution were mixed to prepare aqueous solutions whose pH values were adjusted to be 2, 3, 4 and 5, respectively. By using these solutions and physiological saline solution, the elution rates were calculated following the same procedures as those indicated above.
By following the same procedures and under the same conditions as those of Example 31, elution rates of 9-propionyljosamycin were measured.
By following the same procedures and under the same conditions as those of Example 31, elution rates of josamycin were measured.
In addition to the conditions of Example 31, Japan Pharmacopoeia 1st solution and Japan Parmacopoeia 2nd solution were mixed to prepare an aqueous solution having pH of 2.5, and following the same procedures as those of Example 31, elution rates of 9,3"-diacetylmidecamycin were measured.

[2] = Stability in Japan Pharmacopoeia 1st solution (pH 1.2) at 37° C., with or without stabilizer (TLC densitometry, 232 nm); type: physicochemical; settings: for improvement of stability compared with control, 30 minutes: value at 30 minutes; for stability in 1st solution (in words): 1st solution pH 1.2, no stabilizer; for stability with tri-sodium citrate (in words): 150-300 mg of tri-sodium citrate; for stability with calcium phosphate (in words): 150-400 mg of calcium phosphate; for stability with glycine (in words): 150-900 mg of glycine; for stability with L-aspartic acid monosodium salt (in words): 200-500 mg of Asp.Na; for stability with monosodium glutamate (in words): 200-500 mg of Glu.Na; for degraded at 0.5 h: read-out: decomposites (balance), 30 minutes; for remaining at 0.5 h: read-out: residual amount after contact with 1st solution, 30 minutes; for degraded at 1 h / remaining at 1 h: 60 minutes; for stability with a larger amount of glycine (in words): larger amount of glycine (up to 900 mg)
Description: The stabilizers showing pH 3-10 used in the invention may be substances having a buffering or antacid action and showing pH 3-10, preferably 5.5-6.5. These are, for example, neutral amino acids or their basic salts, basic salts of acidic amino acids, basic amino acids,basic salts of organic carboxylic acids,basic salts of polybasic organic carboxylic acids, basic salts of uronic acid or inorganic salt antacids. The neutral amino acids or basic salts thereof include glycine, alanine, aminobutyric acid, proline, leucine, isoleucine, methionine, threonine, serine, valine, or their aluminium salts, for example aluminium glycinate. Among these, glycine, alanine and aluminium glycinate, both of which show pH 5.5-6.5, are preferable. The basic salts of acidic amino acid include monobasic salts such as a monosodium, monopotassium or magnesium salt of glutaminic or aspartic acid. Among these monobasic salts, monosodium glutamate or monosodium aspartate is preferable. The basic amino acids include arginine, glutamine, asparagine, citrulin, tryptophane and histidine. Especially, histidine is preferable. The basic salts of monobasic organic carboxylic acid include basic salts such as sodium, potassium, magnesium or aluminium salts of saturated monobasic organic carboxylic acids such as acetic acid and propionic acid, of unsaturated monobasic organic acids such as acrylic acid, crotonic acid and vinylacetic acid, and of other monobasic organic acids such as lactic acid, pyruvic acid, glyceric acid and acetoacetic acid. The basic salts of polybasic organic carboxylic acid include mono-, di- or tri-sodium, potassium, magnesium, calcium or aluminium salts of saturated polybasic organic carboxylic acids such as oxalic acid, malonic acid, succinic acid, glutaric acid, adipic acid and pimelic acid, of unsaturated polybasic organic carboxylic acids such as maleic acid and fumaric acid, and of other polybasic organic carboxylic acids such as meso-oxalic acid, malic acid, oxalacetic acid and citric acid. Among these, trisodium citrate is preferable. The basic salts of uric acids include sodium salts of glucuronic acid, galacturonic acid or their polymers such as alginic acid or peptic acid and dihydroxyaluminium aminoacetate sodium alginate. The inorganic salt antacids include calcium hydrogenphosphate, disodium hydrogenphosphate, dipotassium hydrogenphosphate, magnesium hydrogenphosphate, calcium carbonate, sodium carbonate, potassium carbonate, sodium hydrogen carbonate, aluminium carbonate, magnesium carbonate, potassium metasilicate, magnesium aluminate metasilicate, sodium metasilicate, synthetic aluminium silicate, magnesium silicate, aluminium silicate, magnesium aluminate silicate, magnesium-bismuth aluminate silicate, magnesium oxide, alumina-magnesium hydroxide, magnesium peroxide, magnesium hydroxide, aluminium hydroxide, synthetic hydrotarphite, aluminium phosphate and others. Especially, calcium phosphate and magnesium phosphate are preferable. Each of these stabilizers may be used alone or in the form of a mixture. […] A method for stabilization of 16-membered ring macrolide antibiotics of the present invention will be described in detail. The afore-mentioned various 16-membered ring macrolide antibiotics, for example 9-hydroxy 16-membered ring macrolides such as midecamycin, 3"-propionylleucomycin A5 and josamycin and 9-acyloxy 16-membered ring macrolides such as 9,3"-diacetylmidecamycin and 9-propionyljosamycin show extremely poor residual rates when added to an acidic solution of the Japanese Pharmacopoeia lst liquid (pH 1.2) and allowed to stand. That is, the 9hydroxy 16-membered ring maclorides decompose in a short time to by-produce their iso, demycarosyl and/or isodemycarosyl forms. The 9-acyloxy 16-membered ring macrolides decompose, too, to by-produce their 9-deacyl, 9-deacyl-iso, demycarosyl, 9-deacyl-demycarosyl or 9-deacyl-iso-demycarosyl forms. […]

[3] = jp 1st solution, 1st solution pH 1.2, 37° C., 30 minutes, no stabilizer
[4] = jp 1st solution, 1st solution pH 1.2, 37° C., no stabilizer, read-out: decomposites (balance), 60 minutes
[5] = jp 1st solution, 1st solution pH 1.2, 37° C., no stabilizer, read-out: residual amount after contact with 1st solution, 60 minutes
[6] = solutions whose pH is equal to or less than 4.37
[7] = 1st solution pH 1.2, 37° C., 30 minutes, no stabilizer
[8] = jp 1st solution, pH 1.2, 1st solution pH 1.2, 37° C., 30 minutes, no stabilizer

SMILES	elution rate in physiological saline solution (summary) ([1]; general description)	improvement of stability compared with control, 30 minutes ([2]; 150 mg of glycine) [%]	stability in 1st solution (in words) [2]	stability with tri-sodium citrate (in words) ([2]; 1st solution)	stability with calcium phosphate (in words) ([2]; 1st solution)	stability with glycine (in words) ([2]; 1st solution)	stability with L-aspartic acid monosodium salt (in words) ([2]; 1st solution)	stability with monosodium glutamate (in words) ([2]; 1st solution)	degraded at 0.5 h [2, 3] [%]	remaining at 0.5 h [2, 3] [%]	degraded at 1 h [2, 4] [%]	remaining at 1 h [2, 5] [%]	stability with a larger amount of glycine (in words) [2]	elution rate, pH 1.2, 2 and 3 ([1]; after 15-minute stirring) [%]	elution rate, pH 4 and 5 ([1]; after 15-minute stirring)	elution rate in pH 1.2-3 acidic aqueous solution (summary) ([1]; general description)	elution rate in pH 4-5 weak acidic aqueous solution (summary) ([1]; general description)	elution rate, physiological saline solution ([1]; after 15-minute stirring) [%]	time within which elution was nearly completed [1, 6] [min]	also measured
CCC(=O)OC1CC(=O)OC(C)C/C=C/C=C/C(OC(C)=O)C(C)CC(CC=O)C(OC2OC(C)C(OC3CC(C)(OC(C)=O)C(OC(=O)CC)C(C)O3)C(N(C)C)C2O)C1OC (stereo not drawn) [9,3"-diacetylmidecamycin]	less than 15%	60	extremely unstable	very much enhanced	extremely enhanced	stabilized well	very much enhanced	very much enhanced	50.6	49.4	75.5	24.5	hardly decomposed							elution rate, pH 1.2, 2 and 2.5 ([1]; initial pH 1.2, 2 and 2.5, after 15-minute stirring): ≥ 95%; elution rate, pH 3 ([1]; initial pH 3, after 15-minute stirring): 50%; elution rate, pH 4 and 5 and physiological saline solution ([1]; initial pH 4 and 5 and physiological saline, after 15-minute stirring): 5-10%; elution rate in pH 1.2-2.5 acidic aqueous solution (summary) ([1]; pH 1.2-2.5, general description): more than 95%; time within which elution was nearly completed ([1]; solutions whose final pH is equal to or less than 3.77): ≤ 15 min
CCC(=O)O[C@H]1/C=C/C=C/C[C@@H](C)OC(=O)C[C@@H](OC(C)=O)[C@H](OC)[C@@H](O[C@@H]2O[C@H](C)[C@@H](O[C@H]3C[C@@](C)(O)[C@@H](OC(=O)CC(C)C)[C@H](C)O3)[C@H](N(C)C)[C@H]2O)[C@@H](CC=O)C[C@H]1C [9-propionyljosamycin]	less than 15%		extremely unstable	very much enhanced	extremely enhanced	stabilized well	very much enhanced	very much enhanced	55.8	44.2	84.1	15.9	hardly decomposed	≥ 95	45-55%	more than 95%	less than 50%	10	≤ 15	improvement of stability compared with control, 60 minutes ([2]; 150 mg of glycine, value at 60 minutes): improved by four times; degraded at 25 min ([2]; jp 1st solution, pH 1.2, 1st solution, about 25 minutes, read-out: decomposition in contact with 1st solution): 50%
CO[C@@H]1[C@@H](O[C@@H]2O[C@H](C)[C@@H](O[C@H]3C[C@@](C)(O)[C@@H](OC(=O)CC(C)C)[C@H](C)O3)[C@H](N(C)C)[C@H]2O)[C@@H](CC=O)C[C@@H](C)[C@@H](O)/C=C/C=C/C[C@@H](C)OC(=O)C[C@H]1OC(C)=O [josamycin]	less than 15%	30												≥ 95	50-60%	more than 95%	less than 50%	15		time within which elution was nearly completed ([1]; solutions whose pH is equal to or less than 4.35): ≤ 15 min; degraded at 1 h ([2]; jp 1st solution, pH 1.2, decomposites (balance)): 53.3%; remaining at 1 h ([2]; jp 1st solution, pH 1.2, residual amount after contact with 1st solution): 46.7%
CCC(=O)OC1CC(=O)OC(C)C/C=C/C=C/C(O)C(C)CC(CC=O)C(OC2OC(C)C(OC3CC(C)(O)C(OC(=O)CC)C(C)O3)C(N(C)C)C2O)C1OC (stereo not drawn) [midecamycin]	less than 15%	50	extremely unstable	extremely well stabilized	extremely well stabilized	stabilized well	very much enhanced	very much enhanced					hardly decomposed	≥ 95	45-60%	more than 95%	less than 50%	15	≤ 15	decomposites (balance), 30 minutes [2, 7]: 42.6%; residual amount after contact with 1st solution, 30 minutes [2, 7]: 57.4%; degraded at 0.5 h [2, 8]: 55%; remaining at 0.5 h [2, 8]: 45%; degraded at 1 h ([2]; jp 1st solution, pH 1.2, 1st solution pH 1.2, 37° C., no stabilizer, read-out: decomposites (balance), 60 minutes): 65%; remaining at 1 h ([2]; jp 1st solution, pH 1.2, 1st solution pH 1.2, 37° C., no stabilizer, read-out: residual amount after contact with 1st solution, 60 minutes): 35%
